Measurements reported in US20070167492A1, “Molluscicidal agents” (priority 2003, published 2007).

Experiments:
[1] = system: Winter wheat (Kampa race) seeds; test: Seed germination test of treated winter wheat seeds (rolled in paper); assay type: in vivo; conditions: 3x50 seeds, 6 days at 22° C.
How it was run: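 Seeds were disinfected with fludioxonil-containing Beret Gold (2 ml per kg seed) and coated with Sepiret® for formulations unsuitable for coating. Germination of 3×50 seeds rolled in paper was scored after 6 days at continuous 22° C. under a 16 hours light regime.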

[2] = Example 1: pot test, treated winter wheat seed with 5 adult slugs per pot, 14 days; assay type: in vivo, Deroceras reticulatum; conditions: Example 1; winter wheat seed treatment
How it was run: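 Fludioxonil-disinfected winter wheat seed (Kampa, 40 per pot) sown on quartz sand over potting soil with 5 adult slugs per pot; ±15° C., ±90% RH, 12 h light/12 h dark, 4 replicates. Damaged seeds, plants, dead slugs and fecal pellets counted up to day 14; F-tests and Student-tests.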

SMILES	Percentage germinated ([1]; 2 ml formulated per kg seed) [%]	Percentage germinated ([1]; 4 ml formulated per kg seed) [%]	Percentage germinated ([1]; 8 ml formulated per kg seed) [%]	Percentage germinated ([1]; 12 ml formulated per kg seed) [%]	Percentage germinated ([1]; 3.8 ml formulated per kg seed) [%]	Percentage germinated ([1]; 7.5 ml formulated per kg seed) [%]	Percentage germinated ([1]; 11 ml formulated per kg seed) [%]	Percentage germinated ([1]; 15 ml formulated per kg seed) [%]	Percentage germinated ([1]; 10 ml formulated per kg seed) [%]	phytotoxicity [2]
O=[N+]([O-])NC1=NCCN1Cc1ccc(Cl)nc1 [imidacloprid]	78	89	71	77	–	–	–	–	–	–
CC1OC(C)OC(C)OC(C)O1 (stereo not drawn) [metaldehyde]	–	–	–	–	56	31	48	8	–	–
O=CC=Cc1ccccc1 [cinnamaldehyde]	25	0	–	–	–	–	–	–	0	phytotoxic
